Reference: patent US10532066B2, “Surfactant lipids, compositions thereof, and uses thereof” (National Jewish Health, priority 2007, dated 2020)
“Also recorded” adds a separate entry of the source.

Tests used:
[1] = target: T1, CD14 binding to LPS (Homo sapiens, UniProt P08571); test: Phospholipid competition for CD14 binding to solid phase LPS; details: CD14 1 μg/ml, liposomes 20 μg/ml
T1 construct: purchased Cell Sciences Inc. (Canton, Mass.)
T1 sequence (P08571 20-345): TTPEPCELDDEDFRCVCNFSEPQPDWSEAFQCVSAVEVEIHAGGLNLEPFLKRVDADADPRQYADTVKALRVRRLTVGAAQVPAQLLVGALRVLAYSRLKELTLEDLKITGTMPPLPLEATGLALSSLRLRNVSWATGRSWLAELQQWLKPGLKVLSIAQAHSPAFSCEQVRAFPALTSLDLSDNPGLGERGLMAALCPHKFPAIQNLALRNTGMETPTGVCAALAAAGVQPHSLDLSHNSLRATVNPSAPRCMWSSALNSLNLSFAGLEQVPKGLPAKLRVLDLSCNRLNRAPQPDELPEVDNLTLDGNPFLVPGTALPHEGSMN
Procedure: FIG. 13. PG Inhibits CD14 binding to solid phase LPS. (A) Various types of PG were coated onto microtiter plates, and incubated with CD14 (1 μg/ml) at 37° C. for 1 h. […] Types of PG shown on the graph are: dilauroylphosphatidylglycerol (DLPG), dimyristoyl-phosphatidylglycerol (DMPG), dipalmitoylphosphatidylglycerol (DPPG), and 16:0/18:1; palmitoyl-oleoyl-phosphatidylglycerol (POPG). […] The binding of CD14 to LPS was detected using anti-CD14 monoclonal antibody. The ELISA based absorbance of CD14 bound to LPS was defined as 100%.

[2] = test system: differentiated U937 cells; test: LPS-induced TNF-α production by U937 cells in serum free media (without LBP); assay type: cell-based, human; details: for LPS-induced synthesis and secretion of TNF-α in serum free media: LPS 10 ng/ml, 6 h, without LBP; for potency as LPS antagonist without LBP: serum free media compared with serum
Procedure: U937 cells were induced to differentiate by incubation in medium containing 10 nM of phorbol myristate acetate (PMA) for 48 h. The cells (1.3×10^5/well) were placed on 96-well plates and further incubated in the absence of PMA for 24 h in RPMI 1640 medium containing 10% BGS. After the cells were washed with PBS, the indicated concentration of phospholipids was preincubated with the cells in RPMI without serum for 30 min before adding LPS. The indicated amount of LPS was then added into the well and incubated for 6 h at 37° C. with 5% CO2. The culture medium was collected and assayed for TNF-α secretion using an ELISA kit (Invitrogen).

[3] = test system: BALB/c mice; test: Lung inflammation induced by intratracheally administered LPS; details: LPS 1 μg + phospholipids 30 μg sprayed into trachea, 18 h
Procedure: A mixture of LPS (1 μg) and phospholipids (30 μg) in 20 μl of PBS was sprayed into murine trachea using a MicroSprayer™ aerosolizer. At 18 h after stimulation, lungs were lavaged via the trachea. TNF-α production (A) was determined by ELISA. The number of leukocytes was counted and differential cell counts (B) were determined from at least 300 cells on cytocentrifuged preparations. Mouse KC (C) and MIP-2 (D) secretion were determined using Quantikine kits (R&D System). The data shown are the means±S.E. from six to eight mice.
Human and mouse TNF-α ELISA kits were purchased from BioSource (Camarillo, Calif.). Mouse KC and MIP-2 Quantikine kits were purchased from R&D System. Measurements of these cytokines were according to the manufacturers' protocols.
Female BALB/c mice from 6 to 8 weeks of age were obtained from Jackson Laboratories (Bar Harbor, Me.). Experiments were conducted under a protocol approved by the Institutional Animal Care and Use Committee of the National Jewish Medical and Research Center. Liposomes were formed using a Liposofast™ (Avestin; Ottawa, Canada), which makes unilamellar liposomes of 100 nm of diameter, and then mixed with an aqueous solution containing LPS. The mixture of LPS and phospholipids was sprayed into murine trachea using a MicroSprayer™ aerosolizer (PennCentury, Philadelphia, Pa.) under isoflurene anesthesia. […] After stimulation, lungs were lavaged via the trachea with 1 ml of Hank's balanced salt solution (Invitrogen Corporation, Carlsbad, Calif.). The volume of collected BALF was measured in each sample and the number of leukocytes was counted (Coulter Counter; Coulter Corporation, Hialeah, Fla.). Differential cell counts were determined from at least 300 cells on cytocentrifuged preparations (Cytospin; Shandon Ltd., Runcorn, Cheshire, UK). Slides were stained with modified Wright-Giemsa (Hema; Protocol, Swedesboro, N.J.) and the cell populations differentiated by standard hematologic procedures. Cytokine levels in the BALF or in the supernatants of cultured airway macrophages were measured using ELISA kits.

[4] = test system: MAPK, IkBα and MKP-1 in differentiated U937 cells; test: Western blot of LPS induced MAPK and IkBα phosphorylation and MKP-1 expression; assay type: cell-based, human; details: LPS 10 ng/ml; for LPS-induced MKP-1 expression / LPS-induced phosphorylation of p38, ERK, JNK and IkBα: liposomes 200 μg/ml; for LPS-induced phosphorylation of p38, ERK, JNK and IkBα: 15-60 min
Procedure: FIG. 4. POPG inhibits LPS induced MAPK and IkBα phosphorylation and MKP-1 expression. POPG liposomes (200 μg/ml) were added to monolayer cultures of differentiated U937 cells that received either no treatment or 10 ng/ml LPS. After incubating for the indicated time, cells were lysed using lysis buffer containing detergent, protease inhibitors and phosphatase inhibitors. Aliquots with 15 μg of protein from lysates were separated by SDS-PAGE and transferred onto nitrocellulose membranes. The amount of phosphorylation was detected using phospho-specific antibodies to p38MAPK, p42/p44 ERK, p46-p54 INK and phosphorylated IkBα. To determine equal loading of proteins between samples, the membranes were probed with rabbit polyclonal p46 INK, p42/p44 ERK, p38MAPK and IkBα antibodies. The expression of MKP-1 was detected with a polyclonal MKP-1 antibody.
FIG. 5. Quantification of POPG inhibition of LPS induced signaling. Western blot analysis as described in FIG. 4 was performed three or four times on separate samples and the intensity of phospho-p38, phospho-IkBα, phosphoERK, phospho JNK, phospho IkBα, total IkBα and MKP-1 was calculated using NIH Image J1.34 software.
FIG. 6. Molecular specificity in POPG action. Liposomes composed of POPC, DPPG or POPG were added to monolayer cultures of differentiated U937 cells that received either no treatment or 10 ng/ml LPS, as indicated. After 30 or 60 min cells were lysed and 15 μg of cellular protein from cultures was separated by SDS-PAGE and transferred onto nitrocellulose membranes. Phosphorylated and nonphosphorylated proteins were detected as described in FIG. 4.
FIG. 7. Comparative quantification of lipid dependent antagonism of LPS signaling. Western blot analysis was performed as described in FIG. 6 in three independent experiments. The intensity of the phosphorylated (p38, ERK, JNK and IkBα) and nonphosphorylated (total IkBα and MKP-1) proteins of interest was measured using NIH Image 0.1.34 software. Significance—*p<0.05, ** p<0.01.
Monolayers of unstimulated or stimulated macrophages were lysed on ice with 250 μl of ice-cold lysis buffer [50 mM Tris.HCl, pH 8.0, containing 137 mM NaCl, 10% (vol/vol) glycerol, 1% (vol/vol) Nonidet P-40, 1 mM NaF, 10 μg/ml leupeptin, 10 μg/ml aprotinin, 2 mM Na3VO4, and 1 mM phenylmethylsulfonyl fluoride (29). Insoluble nuclear material was pelleted by centrifugation at 14,000×g for 10 min at 4° C. and the supernatants were collected. 15 μg of protein from lysates was separated by SDS-PAGE and transferred onto nitrocellulose membranes (30). The blots were then washed in Tris-Tween-buffered saline [TTBS, 20 mM Tris-HCl buffer, pH 7.6, containing 137 mM NaCl and 0.05% (vol/vol) Tween 20], blocked with 5% (wt/vol) nonfat dry milk for 1 hour, and probed according to the method described by Towbin et. al. (30) with phospho-specific antibodies to p46-p54 JNK, p42/p44 ERK, and p38MAPK, or IkBα or with a polyclonal MKP-1 or IkBα antibodies in 5% (wt/vol) BSA dissolved in TTBS. With the use of horseradish peroxidase-conjugated secondary anti-rabbit or anti-mouse antibody, bound antibodies were detected by enhanced chemiluminescence (ECL plus, Amersham Biosciences, Piscataway, N.J.). To determine loading of proteins between samples, the membranes were probed with rabbit polyclonal p46 JNK, p42/p44 ERK, and p38MAPK antibodies.

CCCCCCCCCCCCCC(=O)OCC(COP(=O)(O)OCC(O)CO)OC(=O)CCCCCCCCCCCCC (stereo not shown) [DMPG, dimyristoyl-phosphatidylglycerol]
inhibition of CD14 binding to solid phase LPS [1]: most effective inhibitors | LPS-induced synthesis and secretion of TNF-α in serum free media [2]: still inhibited | potency as LPS antagonist without LBP [2]: continues to remain high | KC secretion in BALF [3]: attenuated | LPS-induced neutrophil infiltration [3]: modestly attenuated | MIP-2 secretion in BALF [3]: attenuated | TNF-α secretion in the lung (BALF) [3]: significantly attenuated

phosphatidylinositol [PI]
LPS-induced MKP-1 expression [4]: reduced | LPS-induced phosphorylation of p38, ERK, JNK and IkBα [4]: reduced | inhibition of CD14 binding to solid phase LPS [1]: fails to compete | LPS-induced synthesis and secretion of TNF-α in serum free media [2]: still inhibited | potency as LPS antagonist without LBP [2]: modestly diminished | KC secretion in BALF [3]: attenuated | LPS-induced neutrophil infiltration [3]: modestly attenuated | MIP-2 secretion in BALF [3]: attenuated | TNF-α secretion in the lung (BALF) [3]: significantly attenuated

CCCCCCCC/C=C\CCCCCCCC(=O)O[C@H](COC(=O)CCCCCCCCCCCCCCC)COP(=O)(O)OCC(O)CO (stereo partly shown) [POPG, palmitoyl-oleoyl-phosphatidylglycerol]
LPS-induced reduction (degradation) of steady state IkBα ([4]; POPG 200 μg/ml): abrogated the reduction; also recorded: remained constant | LPS-induced MKP-1 expression [4]: blocked the synthesis; also recorded: reduced to control levels; also recorded: potently inhibited | LPS-induced phosphorylation of p38, ERK, JNK and IkBα [4]: reduced; also recorded: eliminated the phosphorylation; also recorded: significantly reduces; also recorded: potently inhibited | inhibition of CD14 binding to solid phase LPS [1]: almost completely inhibits; also recorded: most effective inhibitors | LPS-induced synthesis and secretion of TNF-α in serum free media [2]: still inhibited | potency as LPS antagonist without LBP [2]: modestly diminished | KC secretion in BALF [3]: especially POPG attenuated | LPS-induced neutrophil infiltration [3]: modestly attenuated | MIP-2 secretion in BALF [3]: especially POPG attenuated | TNF-α secretion in the lung (BALF) [3]: significantly attenuated

CCCCCCCCCCCCCCCC(=O)OC[C@H](COP(=O)([O-])OCC[N+](C)(C)C)OC(=O)CCCCCCCCCCCCCCC [DPPC, dipalmitoyl-phosphatidylcholine, reference compound]
LPS-induced neutrophil infiltration [3]: not | TNF-α secretion in the lung (BALF) [3]: unaffected

CCCCCCCCCCCCCCCC(=O)OCC(COP(=O)(O)OCC(O)CO)OC(=O)CCCCCCCCCCCCCCC (stereo not shown) [DPPG, dipalmitoyl-phosphatidylglycerol, reference compound]
LPS-induced MKP-1 expression [4]: neither POPC nor DPPG exerted a significant effect | LPS-induced phosphorylation of p38, ERK, JNK and IkBα [4]: neither POPC nor DPPG exerted a significant effect | inhibition of CD14 binding to solid phase LPS [1]: weakly competes
